Test results published in patent US20140080869A1, “Methods for Treating HCV” (priority 2012, published 2014).
Like-named read-outs stand apart in the source and are kept apart here.

How the values were obtained:
[1] = system: HCV replicon with NS5A genotype 5a L31F variant; experiment: Transient chimeric replicon assay, genotype 5a L31F; assay type: cell-based
Text: (§1) Transiently replicating chimeric replicons containing NS5A from genotype 2-6 wild types or replicons containing variants within NS5A were constructed in the 1b-Con1 background. These replicons also contained a firefly luciferase reporter gene. Variants were introduced by site-directed mutagenesis using the Change-IT Multiple Mutation Site Directed Mutagenesis Kit (USB). After the mutagenesis was confirmed by sequence analysis, the plasmids were linearized with ScaI restriction enzyme. The TranscriptAid T7 High Yield Transcription Kit (Fermentas) was used to transcribe the HCV subgenomic RNA from the plasmids. The RNA was transfected via electroporation into a Huh-7 derived cell line as described (see Middleton et al. and Tripathi et al., supra) except that 3×10^6 cells were electroporated with 15 μg of template RNA and the 96 well plate was seeded with 7.5×10^3 cells per well. Four hours post-transfection, the wells from one plate were harvested for luciferase measurement. […] Luciferin solution (50 μl, Promega) was added to each well, and luciferase activity was measured with a Victor II luminometer (Perkin-Elmer). The percent inhibition of HCV RNA replication was calculated for each compound concentration and the EC50 value was calculated using nonlinear regression curve fitting to the 4-parameter logistic equation and GraphPad Prism 4 software.

[2] = system: HCV replicon with NS5A genotype 5a wild type; experiment: Transient chimeric replicon assay, genotype 5a WT; assay type: cell-based; details: Hepatitis C virus
Text: as §1

[3] = system: HCV replicon with NS5A from genotype 3a; details: read-out: Mean EC50 ± Std. Dev.
[4] = system: HCV replicon with NS5A from genotype 2b; experiment: microbe, parasite or virus in culture; details: Hepatitis C virus, read-out: Mean EC50 ± Std. Dev.
[5] = system: HCV replicon with NS5A genotype 2b wild type; experiment: Transient chimeric replicon assay, genotype 2b WT; assay type: cell-based; details: Hepatitis C virus
Text: as §1

[6] = system: HCV replicon with NS5A genotype 2a T24A variant; experiment: Transient chimeric replicon assay, genotype 2a T24A; assay type: cell-based
Text: as §1

[7] = system: HCV genotype 1b-Con1 stable subgenomic replicon; details: read-out: Mean EC50 ± Std. Dev.
[8] = system: HCV replicon with NS5A genotype 3a Y93H variant; experiment: Transient chimeric replicon assay, genotype 3a Y93H; assay type: cell-based; details: Hepatitis C virus
Text: as §1

[9] = system: HCV replicon with NS5A genotype 5a L31V variant; experiment: Transient chimeric replicon assay, genotype 5a L31V; assay type: cell-based; details: Hepatitis C virus
Text: as §1

[10] = system: HCV replicon with NS5A from genotype 3a; experiment: microbe, parasite or virus in culture; details: Hepatitis C virus, read-out: Mean EC50 ± Std. Dev.
[11] = system: HCV replicon with NS5A from genotype 2a; experiment: microbe, parasite or virus in culture; details: Hepatitis C virus, read-out: Mean EC50 ± Std. Dev.
[12] = system: HCV replicon with NS5A from genotype 6a; experiment: microbe, parasite or virus in culture; details: Hepatitis C virus, read-out: Mean EC50 ± Std. Dev.
[13] = system: HCV replicon with NS5A genotype 2a wild type; experiment: microbe, parasite or virus in culture; assay type: cell-based; details: Hepatitis C virus, read-out: Average EC50
Text: (§2) Transiently replicating chimeric replicons containing NS5A from genotype 2-6 wild types or replicons containing variants within NS5A were constructed in the 1b-Con1 background. These replicons also contained a firefly luciferase reporter gene. Variants were introduced by site-directed mutagenesis using the Change-IT Multiple Mutation Site Directed Mutagenesis Kit (USB). After the mutagenesis was confirmed by sequence analysis, the plasmids were linearized with ScaI restriction enzyme. The TranscriptAid T7 High Yield Transcription Kit (Fermentas) was used to transcribe the HCV subgenomic RNA from the plasmids. The RNA was transfected via electroporation into a Huh-7 derived cell line as described (see Middleton et al. and Tripathi et al., supra) except that 3×10^6 cells were electroporated with 15 μg of template RNA and the 96 well plate was seeded with 7.5×10^3 cells per well. Four hours post-transfection, the wells from one plate were harvested for luciferase measurement. This plate provided a measure of the amount of translatable input RNA, and therefore transfection efficiency. To the wells of the remaining plates, a half-log dilution series of the test compound in culture medium (0.5% DMSO final concentration) was added, and plates were incubated at 37° C., 5% CO2 in a humidified incubator for 4 days. After this period, the media was removed and the plates were washed with 100 μl phosphate-buffered saline per well. Luciferin solution (50 μl, Promega) was added to each well, and luciferase activity was measured with a Victor II luminometer (Perkin-Elmer). The percent inhibition of HCV RNA replication was calculated for each compound concentration and the EC50 value was calculated using nonlinear regression curve fitting to the 4-parameter logistic equation and GraphPad Prism 4 software.

[14] = system: HCV replicon with NS5A genotype 6a wild type; experiment: microbe, parasite or virus in culture; assay type: cell-based; details: Hepatitis C virus, read-out: Average EC50
Text: as §2

[15] = system: HCV replicon with NS5A genotype 3a wild type; experiment: microbe, parasite or virus in culture; assay type: cell-based; details: Hepatitis C virus, read-out: Average EC50
Text: as §2

[16] = system: HCV replicon with NS5A genotype 6a T58A variant; experiment: Transient chimeric replicon assay, genotype 6a T58A; assay type: cell-based
Text: as §1

[17] = system: HCV replicon with NS5A genotype 3a M28T variant; experiment: Transient chimeric replicon assay, genotype 3a M28T; assay type: cell-based
Text: as §1

[18] = system: HCV replicon with NS5A from genotype 6a; details: read-out: Mean EC50 ± Std. Dev.
[19] = system: HCV replicon with NS5A genotype 2b L31V variant; experiment: Transient chimeric replicon assay, genotype 2b L31V; assay type: cell-based
Text: as §1

[20] = system: HCV replicon with NS5A genotype 6a T58N variant; experiment: Transient chimeric replicon assay, genotype 6a T58N; assay type: cell-based
Text: as §1

[21] = system: HCV genotype 1b-Con1 stable subgenomic replicon; experiment: microbe, parasite or virus in culture; details: Hepatitis C virus, read-out: Mean EC50 ± Std. Dev.
[22] = system: HCV replicon with NS5A from genotype 2b; details: read-out: Mean EC50 ± Std. Dev.
[23] = system: HCV replicon with NS5A from genotype 2a; details: read-out: Mean EC50 ± Std. Dev.

With COC(=O)N[C@H](C(=O)N1CCC[C@H]1c1nc2cc([C@H]3CC[C@H](c4ccc5[nH]c([C@@H]6CCCN6C(=O)[C@@H](NC(=O)OC)C(C)C)nc5c4)N3c3cc(F)c(N4CCC(c5ccccc5)CC4)c(F)c3)ccc2[nH]1)C(C)C [Compound 1, methyl {(2S)-1-[(2S)-2-{5-[(2R,5R)-1-[3,5-difluoro-4-(4-phenylpiperidin-1-yl)phenyl]-5-{2-[(2S)-1-{(2S)-2-[(methoxycarbonyl)amino]-3-methylbutanoyl}pyrrolidin-2-yl]-1H-benzimidazol-5-yl}pyrrolidin-2-yl]-1H-benzimidazol-2-yl}pyrrolidin-1-yl]-3-methyl-1-oxobutan-2-yl}carbamate] the EC50 [1] was 3.3 pM, the EC50 ([1]; Hepatitis C virus) was under 5 pM and the EC50 [2] was 1.1 pM. For the same compound, the EC50 [3] was 6.4 ± 2.8 pM, the EC50 [4] was under 10 pM and the EC50 [5] was 1.8 pM. The EC50 [6] was 3 pM, the EC50 ([6]; Hepatitis C virus) was under 5 pM and the EC50 [7] was 5.1 ± 1.8 pM. For the same compound, the EC50 [8] was 273 pM, the EC50 [9] was under 5 pM and the EC50 [10] was under 10 pM. For the same compound, the EC50 [11] was under 10 pM, the EC50 [12] was under 10 pM and the EC50 [13] was 3 pM. The EC50 [14] was 2.4 pM, the EC50 [15] was 2.9 pM and the EC50 [16] was 2.5 pM. For the same compound, the EC50 ([16]; Hepatitis C virus) was under 5 pM, the EC50 [17] was 4.6 pM and the EC50 ([17]; Hepatitis C virus) was under 5 pM. The EC50 [18] was 8.7 ± 5.5 pM, the EC50 [19] was 3 pM and the EC50 ([19]; Hepatitis C virus) was under 5 pM. It also gave an EC50 [20] of 3.2 pM, an EC50 ([20]; Hepatitis C virus) of under 5 pM and an EC50 [21] of under 10 pM. The EC50 [22] was 6.4 ± 3.1 pM and the EC50 [23] was 9 ± 4.6 pM.
